# Data: BindingDB's records for doi:10.1016/j.bmcl.2006.12.086 (Valeant Pharmaceuticals Research and Development, 2007)
# Molecular target: Serine/threonine-protein kinase pim-1 (Homo sapiens, UniProt P11309)
# Test: Radioactive Filter Plate Assay
# Settings: pH 7.5; 23 °C
# Experimental: PIM-1 kinase activity was evaluated using calf thymus histones as the substrate in a 96-well filter plate format. After incubation, the plate was washed and dried. The scintillation cocktail was added and the radioactivity counted on a TopCount plate reader (Perkin-Elmer).
# Sequence of Serine/threonine-protein kinase pim-1 (P11309 whole entry): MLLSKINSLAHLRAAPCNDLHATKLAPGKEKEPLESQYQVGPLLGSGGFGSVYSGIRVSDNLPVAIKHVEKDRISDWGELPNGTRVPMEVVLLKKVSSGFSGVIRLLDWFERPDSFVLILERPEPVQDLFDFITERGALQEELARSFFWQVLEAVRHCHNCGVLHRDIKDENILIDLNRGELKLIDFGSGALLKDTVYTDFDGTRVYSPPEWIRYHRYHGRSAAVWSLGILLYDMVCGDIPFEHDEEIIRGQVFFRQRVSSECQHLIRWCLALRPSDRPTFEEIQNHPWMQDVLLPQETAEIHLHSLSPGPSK
row,IC50,Structure (SMILES)
1,990 nM,"N#Cc1c(-c2cccs2)cc(-c2cccs2)nc1O [2-oxo-4,6-bis(thiophen-2-yl)-1,2-dihydropyridine-3-carbonitrile]"
2,3540 nM,"N#Cc1c(-c2cccs2)cc(C(F)(F)F)[nH]c1=O [2-oxo-4-(thiophen-2-yl)-6-(trifluoromethyl)-1,2-dihydropyridine-3-carbonitrile]"
3,460 nM,"N#Cc1c(-c2cccs2)c2c([nH]c1=O)-c1ccccc1OC2 [4-oxo-6-(thiophen-2-yl)-9-oxa-3-azatricyclo[8.4.0.0^{2,7}]tetradeca-1(14),2(7),5,10,12-pentaene-5-carbonitrile]"
4,1490 nM,"N#Cc1c(-c2cccs2)c2c([nH]c1=O)-c1ccccc1SC2 [4-oxo-6-(thiophen-2-yl)-9-thia-3-azatricyclo[8.4.0.0^{2,7}]tetradeca-1(10),2(7),5,11,13-pentaene-5-carbonitrile]"
5,16000 nM,"N#Cc1c(C(F)(F)F)cc(-c2ccco2)[nH]c1=O [6-(furan-2-yl)-2-oxo-4-(trifluoromethyl)-1,2-dihydropyridine-3-carbonitrile]"
6,870 nM,"N#Cc1c(-c2ccco2)c2c([nH]c1=O)-c1ccccc1OC2 [6-(furan-2-yl)-4-oxo-9-oxa-3-azatricyclo[8.4.0.0^{2,7}]tetradeca-1(14),2(7),5,10,12-pentaene-5-carbonitrile]"
